Assay results as given in publication PMC4872164, “Therapeutic Blockade of Immune Complex-Mediated Glomerulonephritis by Highly Selective Inhibition of Bruton’s Tyrosine Kinase” (Scientific Reports, 2016).

Target: Bruton's tyrosine kinase (BTK) (Homo sapiens, UniProt Q06187)
Experiment: TR-FRET LanthaScreen binding assay (affinity, kinact/Ki […] ^-1 s^-1); BTK enzyme IC50; co-crystallization and mass spectrometry (not shown)
Format: biochemical

Sequence of Bruton's tyrosine kinase (BTK) (Q06187 2-659): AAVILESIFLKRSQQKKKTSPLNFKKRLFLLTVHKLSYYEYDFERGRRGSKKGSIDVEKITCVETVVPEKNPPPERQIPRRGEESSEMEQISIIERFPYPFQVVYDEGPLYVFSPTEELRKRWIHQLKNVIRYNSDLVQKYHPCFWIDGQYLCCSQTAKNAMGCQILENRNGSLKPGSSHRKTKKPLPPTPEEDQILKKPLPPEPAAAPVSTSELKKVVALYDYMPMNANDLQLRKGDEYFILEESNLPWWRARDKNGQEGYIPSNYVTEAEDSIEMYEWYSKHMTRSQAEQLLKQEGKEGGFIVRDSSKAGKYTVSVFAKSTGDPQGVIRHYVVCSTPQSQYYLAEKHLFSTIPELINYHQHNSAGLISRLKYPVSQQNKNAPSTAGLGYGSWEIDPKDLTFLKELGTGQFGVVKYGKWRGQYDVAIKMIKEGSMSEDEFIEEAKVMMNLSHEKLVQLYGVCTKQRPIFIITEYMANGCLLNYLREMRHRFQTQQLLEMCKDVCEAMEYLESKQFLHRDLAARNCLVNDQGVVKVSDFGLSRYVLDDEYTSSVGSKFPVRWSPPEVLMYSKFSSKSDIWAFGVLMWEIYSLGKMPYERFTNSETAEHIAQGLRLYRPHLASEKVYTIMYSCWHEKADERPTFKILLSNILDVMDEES

IC50: 0.9 nM
Substance: BI-BTK-1
